# Measured values published in ChEMBL document CHEMBL3045057, “2-D QSAR studies of steroidal natural products oleanic acid and their semisynthetic derivatives as potent protein tyrosine phosphatase 1B inhibitors” (Med Chem Res, 2012).
# Molecular target: T1, Tyrosine-protein phosphatase non-receptor type 1 (Homo sapiens, UniProt P18031)
# T1 sequence (P18031 whole entry): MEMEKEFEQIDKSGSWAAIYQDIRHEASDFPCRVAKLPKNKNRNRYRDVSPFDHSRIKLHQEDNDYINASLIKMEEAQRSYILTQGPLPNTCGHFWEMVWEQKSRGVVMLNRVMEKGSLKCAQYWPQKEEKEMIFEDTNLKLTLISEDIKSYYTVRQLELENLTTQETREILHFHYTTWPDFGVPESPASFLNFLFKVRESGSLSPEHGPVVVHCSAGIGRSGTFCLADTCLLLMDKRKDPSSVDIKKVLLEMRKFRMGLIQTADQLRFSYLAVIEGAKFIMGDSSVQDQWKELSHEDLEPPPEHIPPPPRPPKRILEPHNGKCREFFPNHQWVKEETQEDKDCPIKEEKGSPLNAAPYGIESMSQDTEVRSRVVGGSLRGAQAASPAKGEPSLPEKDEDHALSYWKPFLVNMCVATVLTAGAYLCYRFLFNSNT
# Assay: Inhibition of PTP1B (unknown origin)
smiles,measurement,setting,value
CC1(C)CC[C@]2(C(=O)O)CC[C@]3(C)C(=CC[C@@H]4[C@@]5(C)CC[C@H](Cc6ccccc6)C(C)(C)[C@@H]5CC[C@]43C)[C@@H]2C1,IC50,read-out: IC50,2.67 µM
same,IC50,read-out: pIC50 (converted),2.67 µM
CC1(C)CC[C@]2(C(=O)O)CC[C@]3(C)C(=CC[C@@H]4[C@@]5(C)CC[C@H](Cc6ccccc6C(=O)O)C(C)(C)[C@@H]5CC[C@]43C)[C@@H]2C1,IC50,read-out: IC50,2.72 µM
same,IC50,read-out: pIC50 (converted),2.72 µM
CC1(C)CC[C@]2(CCCCC(=O)NC(Cc3ccccc3)C(=O)O)CC[C@]3(C)C(=CC[C@@H]4[C@@]5(C)CC[C@H](OCc6ccc(C(=O)O)cc6)C(C)(C)[C@@H]5CC[C@]43C)[C@@H]2C1 (some centres not stated),IC50,read-out: IC50,0.15 µM
same,IC50,read-out: pIC50 (converted),0.15 µM
COc1ccc(CC(NC(=O)C[C@]23CCC(C)(C)C[C@H]2C2=CC[C@@H]4[C@@]5(C)CC[C@H](O)C(C)(C)[C@@H]5CC[C@@]4(C)[C@]2(C)CC3)C(=O)O)cc1OC (some centres not stated),IC50,read-out: IC50,0.82 µM
same,IC50,read-out: pIC50 (converted),0.82 µM
COc1cc(CC(NC(=O)C[C@]23CCC(C)(C)C[C@H]2C2=CC[C@@H]4[C@@]5(C)CC[C@H](O)C(C)(C)[C@@H]5CC[C@@]4(C)[C@]2(C)CC3)C(=O)O)cc(OC)c1 (some centres not stated),IC50,read-out: IC50,0.63 µM
same,IC50,read-out: pIC50 (converted),0.63 µM
Cc1ccccc1CC(NC(=O)C[C@]12CCC(C)(C)C[C@H]1C1=CC[C@@H]3[C@@]4(C)CC[C@H](O)C(C)(C)[C@@H]4CC[C@@]3(C)[C@]1(C)CC2)C(=O)O (some centres not stated),IC50,read-out: IC50,0.55 µM
same,IC50,read-out: pIC50 (converted),0.55 µM
Cc1ccc(CC(NC(=O)C[C@]23CCC(C)(C)C[C@H]2C2=CC[C@@H]4[C@@]5(C)CC[C@H](O)C(C)(C)[C@@H]5CC[C@@]4(C)[C@]2(C)CC3)C(=O)O)cc1 (some centres not stated),IC50,read-out: IC50,0.65 µM
same,IC50,read-out: pIC50 (converted),0.65 µM
COc1ccccc1CC(NC(=O)C[C@]12CCC(C)(C)C[C@H]1C1=CC[C@@H]3[C@@]4(C)CC[C@H](O)C(C)(C)[C@@H]4CC[C@@]3(C)[C@]1(C)CC2)C(=O)O (some centres not stated),IC50,read-out: IC50,0.53 µM
same,IC50,read-out: pIC50 (converted),0.53 µM
COc1cccc(CC(NC(=O)C[C@]23CCC(C)(C)C[C@H]2C2=CC[C@@H]4[C@@]5(C)CC[C@H](O)C(C)(C)[C@@H]5CC[C@@]4(C)[C@]2(C)CC3)C(=O)O)c1 (some centres not stated),IC50,read-out: IC50,0.52 µM
same,IC50,read-out: pIC50 (converted),0.52 µM
COc1ccc(CC(NC(=O)C[C@]23CCC(C)(C)C[C@H]2C2=CC[C@@H]4[C@@]5(C)CC[C@H](O)C(C)(C)[C@@H]5CC[C@@]4(C)[C@]2(C)CC3)C(=O)O)cc1 (some centres not stated),IC50,read-out: IC50,0.6 µM
same,IC50,read-out: pIC50 (converted),0.6 µM
CC1(C)CC[C@]2(CC(=O)NC(Cc3ccc4c(c3)OCO4)C(=O)O)CC[C@]3(C)C(=CC[C@@H]4[C@@]5(C)CC[C@H](O)C(C)(C)[C@@H]5CC[C@]43C)[C@@H]2C1 (some centres not stated),IC50,read-out: IC50,0.44 µM
same,IC50,read-out: pIC50 (converted),0.44 µM
COc1cccc(CC(NC(=O)C[C@]23CCC(C)(C)C[C@H]2C2=CC[C@@H]4[C@@]5(C)CC[C@H](O)C(C)(C)[C@@H]5CC[C@@]4(C)[C@]2(C)CC3)C(=O)O)c1OC (some centres not stated),IC50,read-out: IC50,0.66 µM
same,IC50,read-out: pIC50 (converted),0.66 µM
CC1(C)CC[C@]2(C(=O)OCCCCCCCCCCCCC(=O)O)CC[C@]3(C)C(=CC[C@@H]4[C@@]5(C)CC[C@H](O)C(C)(C)[C@@H]5CC[C@]43C)[C@@H]2C1,IC50,read-out: IC50,0.59 µM
same,IC50,read-out: pIC50 (converted),0.59 µM
CC1(C)CC[C@]2(CC(=O)NC(Cc3ccccc3)C(=O)O)CC[C@]3(C)C(=CC[C@@H]4[C@@]5(C)CC[C@H](O)C(C)(C)[C@@H]5CC[C@]43C)[C@@H]2C1 (some centres not stated),IC50,read-out: IC50,0.57 µM
same,IC50,read-out: pIC50 (converted),0.57 µM
CC1(C)CC[C@]2(CC(=O)NC(Cc3cnc[nH]3)C(=O)O)CC[C@]3(C)C(=CC[C@@H]4[C@@]5(C)CC[C@H](O)C(C)(C)[C@@H]5CC[C@]43C)[C@@H]2C1 (some centres not stated),IC50,read-out: IC50,4.62 µM
same,IC50,read-out: pIC50 (converted),4.62 µM
CC1(C)CC[C@]2(CC(=O)NC(CC3=CCc4ccccc43)C(=O)O)CC[C@]3(C)C(=CC[C@@H]4[C@@]5(C)CC[C@H](O)C(C)(C)[C@@H]5CC[C@]43C)[C@@H]2C1 (some centres not stated),IC50,read-out: IC50,0.59 µM
same,IC50,read-out: pIC50 (converted),0.59 µM
CSCCC(NC(=O)C[C@]12CCC(C)(C)C[C@H]1C1=CC[C@@H]3[C@@]4(C)CC[C@H](O)C(C)(C)[C@@H]4CC[C@@]3(C)[C@]1(C)CC2)C(=O)O (some centres not stated),IC50,read-out: IC50,0.55 µM
same,IC50,read-out: pIC50 (converted),0.55 µM
CC1(C)CC[C@]2(CC(=O)NC(Cc3ccccc3Cl)C(=O)O)CC[C@]3(C)C(=CC[C@@H]4[C@@]5(C)CC[C@H](O)C(C)(C)[C@@H]5CC[C@]43C)[C@@H]2C1 (some centres not stated),IC50,read-out: IC50,0.56 µM
same,IC50,read-out: pIC50 (converted),0.56 µM
CC1(C)CC[C@]2(CC(=O)NC(Cc3cccc(Cl)c3)C(=O)O)CC[C@]3(C)C(=CC[C@@H]4[C@@]5(C)CC[C@H](O)C(C)(C)[C@@H]5CC[C@]43C)[C@@H]2C1 (some centres not stated),IC50,read-out: IC50,0.51 µM
same,IC50,read-out: pIC50 (converted),0.51 µM
CC1(C)CC[C@]2(CC(=O)NC(Cc3ccc(Cl)cc3)C(=O)O)CC[C@]3(C)C(=CC[C@@H]4[C@@]5(C)CC[C@H](O)C(C)(C)[C@@H]5CC[C@]43C)[C@@H]2C1 (some centres not stated),IC50,read-out: IC50,0.61 µM
same,IC50,read-out: pIC50 (converted),0.61 µM
CC1(C)CC[C@]2(CC(=O)NC(Cc3ccc(F)cc3)C(=O)O)CC[C@]3(C)C(=CC[C@@H]4[C@@]5(C)CC[C@H](O)C(C)(C)[C@@H]5CC[C@]43C)[C@@H]2C1 (some centres not stated),IC50,read-out: IC50,0.57 µM
same,IC50,read-out: pIC50 (converted),0.57 µM
CC1(C)CC[C@]2(CC(=O)NC(Cc3ccc([N+](=O)[O-])cc3)C(=O)O)CC[C@]3(C)C(=CC[C@@H]4[C@@]5(C)CC[C@H](O)C(C)(C)[C@@H]5CC[C@]43C)[C@@H]2C1 (some centres not stated),IC50,read-out: IC50,0.45 µM
same,IC50,read-out: pIC50 (converted),0.45 µM
CC1(C)CC[C@]2(C(=O)OCCC(=O)O)CC[C@]3(C)C(=CC[C@@H]4[C@@]5(C)CC[C@H](O)C(C)(C)[C@@H]5CC[C@]43C)[C@@H]2C1,IC50,read-out: IC50,2.1 µM
same,IC50,read-out: pIC50 (converted),2.1 µM
CC1(C)CC[C@]2(C(=O)OCCCCC(=O)O)CC[C@]3(C)C(=CC[C@@H]4[C@@]5(C)CC[C@H](O)C(C)(C)[C@@H]5CC[C@]43C)[C@@H]2C1,IC50,read-out: IC50,1.33 µM
same,IC50,read-out: pIC50 (converted),1.33 µM
CC1(C)CC[C@]2(C(=O)OCCCCCCC(=O)O)CC[C@]3(C)C(=CC[C@@H]4[C@@]5(C)CC[C@H](O)C(C)(C)[C@@H]5CC[C@]43C)[C@@H]2C1,IC50,read-out: IC50,0.88 µM
same,IC50,read-out: pIC50 (converted),0.88 µM
CC1(C)CC[C@]2(C(=O)OCCCCCCCCC(=O)O)CC[C@]3(C)C(=CC[C@@H]4[C@@]5(C)CC[C@H](O)C(C)(C)[C@@H]5CC[C@]43C)[C@@H]2C1,IC50,read-out: IC50,0.78 µM
same,IC50,read-out: pIC50 (converted),0.78 µM
CC1(C)CC[C@]2(C(=O)OCCCCCCCCCCC(=O)O)CC[C@]3(C)C(=CC[C@@H]4[C@@]5(C)CC[C@H](O)C(C)(C)[C@@H]5CC[C@]43C)[C@@H]2C1,IC50,read-out: IC50,0.72 µM
same,IC50,read-out: pIC50 (converted),0.72 µM
CC1(C)CC[C@]2(C(=O)NC(Cc3ccccc3)C(=O)O)CC[C@]3(C)C(=CC[C@@H]4[C@@]5(C)CC[C@H](O)C(C)(C)[C@@H]5CC[C@]43C)[C@@H]2C1 (some centres not stated),IC50,read-out: IC50,3.31 µM
same,IC50,read-out: pIC50 (converted),3.31 µM
CC1(C)CC[C@]2(C(=O)NC(CCC(=O)O)C(=O)O)CC[C@]3(C)C(=CC[C@@H]4[C@@]5(C)CC[C@H](O)C(C)(C)[C@@H]5CC[C@]43C)[C@@H]2C1 (some centres not stated),IC50,read-out: IC50,16.4 µM
same,IC50,read-out: pIC50 (converted),16.4 µM
CC1(C)CC[C@]2(C(=O)O)CC[C@]3(C)C(=CC[C@@H]4[C@@]5(C)CC[C@H](OCc6ccccc6C(=O)O)C(C)(C)[C@@H]5CC[C@]43C)[C@@H]2C1,IC50,read-out: IC50,4.58 µM
same,IC50,read-out: pIC50 (converted),4.58 µM
CC1(C)CC[C@]2(C(=O)Nc3ccc(C(=O)O)cc3)CC[C@]3(C)C(=CC[C@@H]4[C@@]5(C)CC[C@H](O)C(C)(C)[C@@H]5CC[C@]43C)[C@@H]2C1,IC50,read-out: IC50,3.09 µM
same,IC50,read-out: pIC50 (converted),3.09 µM
